Assay results: the NIST ThermoML archive (doi:10.1021/je9006037)

Test: refractive index (Na D-line) (dimensionless); xn = mol fraction of the nth substance listed
Settings: 101 kPa, Liquid

CCn1cc[n+](C)c1.O=S(=O)([O-])C(F)(F)F [1-ethyl-3-methylimidazolium trifluoromethanesulfonate] + CC(C)O
refractive index
Settings | 288.15 K | 298.15 K | 308.15 K | 318.15 K | 328.15 K | 338.15 K
x1 = 0.04997 | 1.38697 | 1.38304 | 1.37919 | 1.3753 | 1.37148 | 1.36735
x1 = 0.09937 | 1.39302 | 1.38935 | 1.38578 | 1.38236 | 1.37896 | 1.37487
x1 = 0.1504 | 1.39853 | 1.39494 | 1.39186 | 1.38861 | 1.38506 | 1.38103
x1 = 0.1995 | 1.40326 | 1.39957 | 1.39662 | 1.39356 | 1.39032 | 1.38662
x1 = 0.2508 | 1.40739 | 1.40382 | 1.40089 | 1.39817 | 1.39474 | 1.3916
x1 = 0.2997 | 1.411 | 1.4074 | 1.40439 | 1.40147 | 1.3983 | 1.39544
x1 = 0.3988 | 1.41689 | 1.41365 | 1.41071 | 1.40758 | 1.40457 | 1.40189
x1 = 0.5014 | 1.42209 | 1.41872 | 1.41564 | 1.41261 | 1.40972 | 1.4068
x1 = 0.6012 | 1.42562 | 1.42259 | 1.41956 | 1.41667 | 1.41379 | 1.41098
x1 = 0.6972 | 1.42868 | 1.42574 | 1.42285 | 1.41998 | 1.41714 | 1.41431
x1 = 0.7978 | 1.43159 | 1.42861 | 1.42579 | 1.42298 | 1.42017 | 1.41738
x1 = 0.8342 | 1.43251 | 1.42965 | 1.42678 | 1.42395 | 1.42115 | 1.41837
x1 = 0.8905 | 1.43379 | 1.43098 | 1.42818 | 1.42541 | 1.42264 | 1.41986
x1 = 1 | 1.43599 | 1.43322 | 1.4304 | 1.42767 | 1.42494 | 1.42222

CCn1cc[n+](C)c1.O=S(=O)([O-])C(F)(F)F [1-ethyl-3-methylimidazolium trifluoromethanesulfonate] + CCCO
refractive index
Settings | 288.15 K | 298.15 K | 308.15 K | 318.15 K | 328.15 K | 338.15 K
x1 = 0.05007 | 1.39381 | 1.38991 | 1.38613 | 1.38243 | 1.37892 | 1.37545
x1 = 0.1013 | 1.39933 | 1.39557 | 1.39221 | 1.38877 | 1.38613 | 1.38306
x1 = 0.1503 | 1.40371 | 1.4001 | 1.3968 | 1.3938 | 1.39112 | 1.38856
x1 = 0.2001 | 1.40743 | 1.404 | 1.4009 | 1.39795 | 1.39522 | 1.39266
x1 = 0.2497 | 1.41088 | 1.40747 | 1.40434 | 1.40127 | 1.39872 | 1.39631
x1 = 0.3008 | 1.41391 | 1.41061 | 1.40747 | 1.40445 | 1.40173 | 1.39926
x1 = 0.3996 | 1.41854 | 1.41537 | 1.41218 | 1.40923 | 1.40634 | 1.40392
x1 = 0.4965 | 1.42297 | 1.41986 | 1.41681 | 1.41376 | 1.41082 | 1.4078
x1 = 0.602 | 1.42671 | 1.42372 | 1.42062 | 1.41752 | 1.41447 | 1.41163
x1 = 0.7043 | 1.42943 | 1.42647 | 1.42347 | 1.42076 | 1.41793 | 1.41508
x1 = 0.7945 | 1.43174 | 1.42886 | 1.42604 | 1.42323 | 1.4204 | 1.41758
x1 = 0.8421 | 1.4325 | 1.42963 | 1.4268 | 1.42398 | 1.42115 | 1.41838
x1 = 0.8988 | 1.43378 | 1.43096 | 1.42815 | 1.42533 | 1.42258 | 1.41984
x1 = 1 | 1.43599 | 1.43322 | 1.4304 | 1.42767 | 1.42494 | 1.42222
